Laboratory results: US20110142866A1, “PEPTIDE ANALOGUES AND CONJUGATES THEREOF” (Eldrug S.A., priority 2007, published 2011)

What was measured:
MOG35-55 induced EAE [1] = experiment: MOG35-55 EAE, spinal cord histopathology; assay type: in vivo, C57BL/6 mice
Description: On day 17 (acute phase of EAE) and day 46 post-EAE-induction (chronic phase of EAE) animals were subjected to transcardial perfusion with 4% paraformaldehyde in PBS. Brains and spinal cords were removed, post-fixed in the same fixative for approximately 20 hours, routinely processed for paraffin embedding and sectioned at […]. Sections from animals of acute and chronic phases of the disease, were then stained using the following methods: a) a modified Bielschowsky silver impregnation staining method combined with haematoxylin, for the simultaneous evaluation of axonal injury, axonal loss and inflammatory processes in EAE as previously described in detail [Lourbopoulos et, al., 2007]; b) Luxol fast blue staining counterstained with Nuclear fast Red for the detection of demyelinating areas within the CNS of animals, using routine histopathological protocols. Pathological evaluation was performed under a light microscope (Olympus Axioplan-2) by two blinded investigators and photos were taken using a CCD camera (Nikon). Five randomly selected longitudinal sections per tissue (brains and spinal cords) were evaluated as follows: for each animal, each section was evaluated under 20× or 40× optical fields (depending on the object of study) so as to cover the entire area of the section. […] Depending on the object of interest the following scales were used to perform the evaluation: (a) For axonal injury (AI), the following scale was used: 0=no AI, 1+=scattered dystrophic injured axons without any spheroid or ovoid, 2+=mild AI with the presence of at least one spheroid or ovoid, 3+=moderate AI, 4+=severe AI; generally injured axons were defined and identified as spheroids and ovoids (which represent axonotmesis), and dilated (dystrophic) axons which represent injured axons not yet being cut. (b) For axonal loss (AL): 0=normal axonal density, 1+=<25% AL, 2+=mild AL (26-50%), 3+=moderate to severe (51-75%) AL, 4+=severe AL (>75%); various degrees of decreased density of axons was attributed to axonal loss and evaluated accordingly. (c) For infiltrations: number of infiltrating cells per optical field and number of infiltrating cells per infiltration. (d) Demyelination was evaluated under 40× optical fields; using a prefrontal grid, we measured the area of demyelination and the total area of white matter in each optical field and then subtracted the % of demyelination present in each optical field.

MOG35-55 induced EAE [2] = experiment: Chronic MOG35-55 EAE, clinical evaluation; assay type: in vivo, C57BL/6 mice; settings: for overall clinical effect on MOG35-55 EAE: co-injection at disease induction at 1:1 ratio
Stability to proteolysis = assay type: in vitro ADME; settings: compared to linear counterparts

CC[C@H](C)[C@@H]1NC(=O)[C@H](CC(N)=O)NC(=O)[C@H](CCCCN)NC(=O)[C@H](Cc2ccccc2)NC(=O)[C@H](Cc2ccccc2)NC(=O)[C@H](Cc2c[nH]cn2)NC(=O)[C@H](C(C)C)NC(=O)[C@H](C(C)C)NC(=O)[C@@H]2CCCN2C(=O)[C@H](CC(N)=O)NC(=O)[C@H](CCC(=O)O)NC(=O)[C@@H]2CCCN2C(=O)[C@H]([C@@H](C)O)NC(=O)[C@H](CCCNC(=N)N)NC(=O)[C@@H]2CCCN2C(=O)[C@H]([C@@H](C)O)NC(=O)[C@H](C(C)C)NC1=O [cyclo(83-99)MBP83-99, cyclo(83-99)E N P V V H F F K N I V T P R T P]
demyelination of the white matter of spinal cords (MOG35-55 induced EAE [1]; acute phase): 9.58±10.5% | effect on axonal injury vs control (MOG35-55 induced EAE [1]; acute phase): mild but statistical significant beneficial effect | effect on axonal loss vs control (MOG35-55 induced EAE [1]; acute phase): mild effect | infiltrating cells per optical field (MOG35-55 induced EAE [1]; acute phase): 290.8±277.7 | inflammatory cells per infiltration (MOG35-55 induced EAE [1]; acute phase): 53.72±62.0 | axonal injury per 20x field, % within GROUP (MOG35-55 induced EAE [1]; acute phase, score 0): 14.3% | axonal loss per 20x field, % within GROUP (MOG35-55 induced EAE [1]; acute phase, score 0): 16.5% | axonal injury per 20x field, % within GROUP (MOG35-55 induced EAE [1]; acute phase, score 1+): 45.1% | axonal loss per 20x field, % within GROUP (MOG35-55 induced EAE [1]; acute phase, score 1+): 36.1% | axonal injury per 20x field, % within GROUP (MOG35-55 induced EAE [1]; acute phase, score 2+): 22.3% | axonal loss per 20x field, % within GROUP (MOG35-55 induced EAE [1]; acute phase, score 2+): 31.6% | axonal injury per 20x field, % within GROUP (MOG35-55 induced EAE [1]; acute phase, score 3+): 11.3% | axonal loss per 20x field, % within GROUP (MOG35-55 induced EAE [1]; acute phase, score 3+): 12.0% | axonal injury per 20x field, % within GROUP (MOG35-55 induced EAE [1]; acute phase, score 4+): 6.0% | axonal loss per 20x field, % within GROUP (MOG35-55 induced EAE [1]; acute phase, score 4+): 3.8% | axonal injury vs control (MOG35-55 induced EAE [1]; chronic phase): not different | axonal loss vs control (MOG35-55 induced EAE [1]; chronic phase): less | demyelination of the white matter of spinal cords (MOG35-55 induced EAE [1]; chronic phase): 7.65±11.4% | infiltrating cells per optical field (MOG35-55 induced EAE [1]; chronic phase): 10.71±39.0 | inflammatory cells per infiltration (MOG35-55 induced EAE [1]; chronic phase): 6.0±15.8 | axonal injury per 20x field, % within GROUP (MOG35-55 induced EAE [1]; chronic phase, score 0): 49.3% | axonal loss per 20x field, % within GROUP (MOG35-55 induced EAE [1]; chronic phase, score 0): 51.4% | axonal injury per 20x field, % within GROUP (MOG35-55 induced EAE [1]; chronic phase, score 1+): 29.0% | axonal loss per 20x field, % within GROUP (MOG35-55 induced EAE [1]; chronic phase, score 1+): 26.8% | axonal injury per 20x field, % within GROUP (MOG35-55 induced EAE [1]; chronic phase, score 2+): 13.0% | axonal loss per 20x field, % within GROUP (MOG35-55 induced EAE [1]; chronic phase, score 2+): 10.9% | axonal injury per 20x field, % within GROUP (MOG35-55 induced EAE [1]; chronic phase, score 3+): 8.0% | axonal loss per 20x field, % within GROUP (MOG35-55 induced EAE [1]; chronic phase, score 3+): 10.1% | axonal injury per 20x field, % within GROUP (MOG35-55 induced EAE [1]; chronic phase, score 4+): 0.7% | axonal loss per 20x field, % within GROUP (MOG35-55 induced EAE [1]; chronic phase, score 4+): 0.7% | mean day of disease onset (MOG35-55 induced EAE [2]; acute phase experiment): 12.00±0.81 | mean clinical score vs control (MOG35-55 induced EAE [2]; acute phase, days 15, 16 and 17): statistical significant different | mean Areas Under the Curve (mAUC) (MOG35-55 induced EAE [2]; acute phase, sacrifice day 17, 300 μg co-injected 1:1 with MOG35-55): 13.32±2.55 | mean day of disease onset (MOG35-55 induced EAE [2]; chronic phase experiment): 17.00±11.74 | Mean Maximal Clinical Scores (MMS) (MOG35-55 induced EAE [2]; chronic phase, day 46): 2.375±1.45 | mean Areas Under the Curve (mAUC) (MOG35-55 induced EAE [2]; chronic phase, day 46): 51.08±36.58 | mean clinical score vs control (MOG35-55 induced EAE [2]; chronic phase, entire observation period): lower mean clinical score | overall clinical effect on MOG35-55 EAE (MOG35-55 induced EAE [2]): mild beneficial effect | overall clinical effect on MOG35-55 EAE (MOG35-55 induced EAE [2]; listed as cyclic MBP83-99): mild preventive benefit | stability to the proteolysis (Stability to proteolysis): increases stability to the proteolysis
